# Patent publication US20050209157A1, “Short bioactive peptides and methods for their use” (priority 2001, published 2005)
# Where two headings read alike, the source gives them in different places. No end group written: not given here.
# Experiments:
# SW480 = experiment: Anti-cancer assay, MTT, LD50; type: cell-based; conditions: SW480 colon adenocarcinoma line, 24 hours with peptide
# Description: (§1) Numbers are LD50 values (μg/mL).
# PC3 = experiment: Anti-cancer assay, MTT, LD50; type: cell-based; conditions: 24 hours with peptide, prostate adenocarcinoma
# Description: as §1
# HeLaS3 = experiment: Anti-cancer assay, MTT, LD50; type: cell-based; conditions: 24 hours with peptide, cervical carcinoma
# Description: as §1
# MCF7 = experiment: Anti-cancer assay, MTT, LD50; type: cell-based; conditions: MCF7 breast adenocarcinoma line, MTT, 24 hours with peptide
# Description: as §1
# BMKC = experiment: Anti-cancer assay, MTT, LD50; type: cell-based; conditions: BMKC cloned melanoma line, 24 hours with peptide
# Description: as §1
# H1299 = experiment: Anti-cancer assay, MTT, LD50; type: cell-based; conditions: 24 hours with peptide, lung large cell carcinoma
# Description: as §1
# P. aeruginosa = type: cell-based, Pseudomonas aeruginosa; conditions: P. aeruginosa H744; MIC of nalidixic acid with peptide at ¼ MIC
# Outline: (§2)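 Synergy against efflux-mutant strains: two-fold dilutions of nalidixic acid or chloramphenicol tested with peptide held at ¼ of its MIC.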
# P. aeruginosa H774 = type: cell-based, Pseudomonas aeruginosa; conditions: P. aeruginosa H744; nalidixic acid + peptide at ¼ MIC; 0.5 or less = synergy
# Outline: as §2
# P. aeruginosa H374 [1] = type: cell-based, Pseudomonas aeruginosa; conditions: for MIC Cm-comb.: MIC of chloramphenicol with peptide at ¼ MIC; for MIC Nal-comb.: MIC of nalidixic acid with peptide at ¼ MIC; for FIC Index: 0.5 or less = synergy
# Outline: as §2
# WI38 = conditions: MTT, 24 hours with peptide; normal fibroblast line
# E. coli UB1005 = type: cell-based, Escherichia coli; conditions: mean of three; 16 to 20 hours at 35° C.; in µg/mL
# [2] = test system: Staphylococcus aureus ATCC 6538; experiment: Antimicrobial assay I, MIC by OD measurement; type: cell-based; conditions: 37° C. for 24 hours, absorbance 620 nm
# [3] = test system: Pseudomonas aeruginosa ATCC 9027; experiment: Antimicrobial assay I, MIC by OD measurement; type: cell-based; conditions: 37° C. for 24 hours, absorbance 620 nm
# in vitro [4] = conditions: human, WI38 normal lung fibroblast cells, LD50 WI38, WI38 normal lung fibroblast line, MTT, 24 hours with peptide
# S. aureus (MRSA) = type: cell-based, Staphylococcus aureus; conditions: mean of three; 16 to 20 hours at 35° C.
# S. pneumoniae C718 = experiment: Antimicrobial assays II, NCCLS broth microdilution MIC; type: cell-based, Streptococcus pneumoniae; conditions: mean of three
# in vitro [5] = type: cell-based, human; conditions: human, human red blood cells, pH 7, hemolytic assay, concentration at 50% hemolysis, 1 hour at 37° C.; read-out: LD50
# S. epidermidis C621 = type: cell-based, Staphylococcus epidermidis; conditions: mean of three; 16 to 20 hours at 35° C.
# S. pyogenes M76 = experiment: Antimicrobial assays II, NCCLS broth microdilution MIC; type: cell-based, Streptococcus pyogenes; conditions: mean of three; 16 to 20 hours at 35° C.
# S. pneumoniae C719 = experiment: as above; type: cell-based, Streptococcus pneumoniae; conditions: mean of three, in µg/mL
# S. pyogenes ATCC19615 = experiment: as above; type: cell-based, Streptococcus pyogenes; conditions: mean of three, in µg/mL
# P. aeruginosa H374 [6] = type: cell-based, Pseudomonas aeruginosa; conditions: mean of three; 16 to 20 hours at 35° C.
# P. acne ATCC 6919 = experiment: Antimicrobial assays II, NCCLS broth microdilution MIC; type: cell-based, Propionibacterium acnes; conditions: mean of three, in µg/mL
# S. typhimurium 14028S = type: cell-based, Salmonella typhimurium; conditions: mean of three; 16 to 20 hours at 35° C.; in µg/mL
# [7] = test system: yeast (Saccharomyces cerevisiae); experiment: Antimicrobial assay I, yeast assay in RPMI 1640; type: cell-based; conditions: RPMI 1640 media
# [8] = chloramphenicol + peptide at ¼ MIC
# [9] = nalidixic acid + peptide at ¼ MIC, FIC=0.25+MIC comb/MIC alone
Molecule,LD50 SW480 (SW480) [µg/mL],PC3 LD50 (PC3) [µg/mL],HeLaS3 LD50 (HeLaS3) [µg/mL],LD50 MCF7 (MCF7) [µg/mL],LD50 BMKC (BMKC) [µg/mL],H1299 LD50 (H1299) [µg/mL],MIC Nal-comb. (P. aeruginosa) [µg/mL],FIC Index (P. aeruginosa H774),MIC Cm-comb. (P. aeruginosa H374 [1]) [µg/mL],MIC Nal-comb. (P. aeruginosa H374 [1]) [µg/mL],FIC Index (P. aeruginosa H374 [1]; [8]),FIC Index (P. aeruginosa H374 [1]; [9]),WI38 LD50 (WI38) [µg/mL],CC50 at 24 h (in vitro [4]) [µg/mL],S. aureus (MRSA) MIC (S. aureus (MRSA)) [µg/mL],S. pneumoniae MIC (S. pneumoniae C718) [µg/mL],HC50 at 1 h (in vitro [5]) [µg/mL],S. epidermidis C621 MIC (S. epidermidis C621) [µg/mL],S. pyogenes M76 MIC (S. pyogenes M76) [µg/mL],S. pneumoniae MIC (S. pneumoniae C719),further results
FAKKLAKKLKKLAKLALAK-NH2 [P41],120,140,185,98,290,245,624,1.25,16,5000,1.25,1.25,175,175,64,64,40,4,8,32,E. coli UB1005 MIC (E. coli UB1005): 2; staph6538 (MIC) [2]: 10 µg/mL; paerug9027 (MIC) [3]: 10 µg/mL; S. pyogenes MIC (S. pyogenes ATCC19615): 8; P. aeruginosa H374 MIC (P. aeruginosa H374 [6]): 4 µg/mL; P. acne MIC (P. acne ATCC 6919): 4; S. typhimurium 14028S MIC (S. typhimurium 14028S): 4
CC(C)C[C@H](NC(=O)[C@H](C)NC(=O)[C@H](CC(C)C)NC(=O)[C@H](CCCCN)NC(=O)[C@H](C)NC(=O)[C@H](CC(C)C)NC(=O)[C@H](CCCCN)NC(=O)[C@H](CCCCN)NC(=O)[C@H](C)NC(=O)[C@H](CC(C)C)NC(=O)[C@H](CCCCN)NC(=O)[C@H](C)NC(=O)[C@H](CC(C)C)NC(=O)[C@H](CCCCN)NC(=O)[C@H](CCCCN)NC(=O)[C@H](C)NC(=O)[C@@H](N)Cc1ccccc1)C(=O)O [P61],100,66,170,105,140,127,624,1.25,16,5000,1.25,1.25,93,93,32,128,390,8,16,32,E. coli UB1005 MIC (E. coli UB1005): 2; S. pyogenes MIC (S. pyogenes ATCC19615): 16; P. aeruginosa H374 MIC (P. aeruginosa H374 [6]): 4 µg/mL; P. acne MIC (P. acne ATCC 6919): 2; S. typhimurium 14028S MIC (S. typhimurium 14028S): 4
KWKLFKKKTKLFKKFAKKLAKKL-NH2 [P73],70,97,270,150,360,115,624,1.25,8,2500,0.75,0.75,160,160,16,> 128,90,4,16,64,staph6538 (MIC) [2]: 50 µg/mL; paerug9027 (MIC) [3]: 15 µg/mL; S. pyogenes MIC (S. pyogenes ATCC19615): 16; yeast (MIC or MFC) [7]: 100 µg/mL; P. acne MIC (P. acne ATCC 6919): 4
FAKKLAKLALKLAKL-NH2 [P44],32,45,22,140,47,72,624,1.25,16,5000,1.25,1.25,36,36,8,8,90,4,4,16,staph6538 (MIC) [2]: 5 µg/mL; paerug9027 (MIC) [3]: 5 µg/mL; S. pyogenes MIC (S. pyogenes ATCC19615): 4; yeast (MIC or MFC) [7]: 50 µg/mL; P. acne MIC (P. acne ATCC 6919): 4
